Measurements as given in patent US20060240535A1, “Carbonyl reductase from lactococcus lactis” (GEORGIA TECH RESEARCH CORPORATION, priority 2004, published 2006).

B1: carbonyl reductase from Lactococcus lactis (LL-CR) (Lactococcus lactis subsp. lactis Il1403) (protein)
chain: MKTLITGENKGIGFALAQNLGHRGYEVLVGARNETRGQEAVEKLKAEGITAKFVKVDLDDLNQLTSLSALTDIDLLINNAGISGNIHSDKGHLDMEKSAFDYSTTDLEETIKTNFLGTHAVIKELLPHSLTENAKIINITVPVSQEYWMPLAYVTSKAAQNAMTFAFGHQFKKDKSKKQIFAVMPGAVATDLNGAKVGDSPFVKSPEETAQMISKFIFDDKNHNAQIINFDGTIYDNYEPGLRNKVIKDVAKNGLKRKFKK

Legend:
[1] = system: carbonyl reductase from Lactococcus lactis; test: CRLL activity assay (decrease of NADPH absorption); substrate table of the isolated carbonyl reductase; type: biochemical; details: Substrate (20 mM); for spec. Act. (U/mg): activity per protein (0.37, 5.5 or 6.6 mg/mL)
Text: The construct crll-pkk223-3 as well as crll-his-pkk223-3 were both transformed separately into the E. coli host strain HB101 for expression.

[2] = biological target: T1, carbonyl reductase from Lactococcus lactis (LL-CR) (Lactococcus lactis, UniProt Q9CJ60); test: Oxidation of secondary alcohols to ketones by LL-CR (enantiospecificity); type: biochemical
[3] = biological target: T1, carbonyl reductase from Lactococcus lactis (LL-CR); test: Purified CRLL activity in aqueous-organic tunable solvents (OATS); type: biochemical
Description: As LL-CR requires organic buffers for stability, such as HEPES or triethanolamine, runs were conducted in partially organic systems using a buffer system of 200 mM NH4CHO3 and 50 mM HEPES at pH 7.0.

[4] = biological target: T1, carbonyl reductase from Lactococcus lactis (LL-CR); test: Enzyme characterisation of purified LL-CR (KM, vmax, kcat, pH and T optima); type: biochemical
[5] = substrate: CC(=O)c1ccccc1; test: as above; type: biochemical, Lactococcus lactis; details: other: pH 7.0 and 30° C.

Molecule	Activity (U/mL) [1] [U/mL]	spec. Act. (U/mg) [1] [U/mg]	also measured
CC1(C)COC(=O)C1=O [ketopantolactone]	9.49	25.65	–
CC(=O)CCC(C)=O [acetonylacetone]	57.88	8.77	–
CC(=O)COc1ccccc1 [Phenoxy-2-propanone]	10.61	28.68	–
O=Cc1ccccc1 [benzaldehyde]	8.3	1.258	–
CC(=O)C(C)C [3-methyl-2-butanone]	12.06	32.59	–
CCOC(=O)CC(C)=O [ethyl acetoacetate]	7.07	19.11	–
CC(=O)CC(C)C [4-methyl-2-pentanone]	21.7	3.288	–
tetralone	3.2	0.4848	–
CC(O)CO (centres unmarked) [1,2-propanediol]	0.025	0.06757	–
O=C1CCCC2CCCCC12 (centres unmarked) [1-decalone]	5.29	14.3	–
CCCC=O [butyraldehyde]	12.7	34.32	–
CCCCCC=O [hexylaldehyde]	45.82	6.942	–
CCC(=O)c1ccccc1 [propiophenone]	2.2	0.4	–
CCOC(=O)C(C)=O [ethyl pyruvate]	16.32	2.473	–
O=C1CCc2ccccc21 [1-indanone]	–	0	–
CC(=O)CC(C)=O [2,4-pentane-dione]	90.77	13.75	–
O=C1CCCCC1 [cyclohexanone]	49	7.424	–
t-butylcyclohexanone	0	0	–
CCCC(=O)CC(=O)OCC [ethyl 3-oxohexanoate]	9.64	26.05	–

Molecule	Activity (U/mL) [1] [U/mL]	spec. Act. (U/mg) [1] [U/mg]	also measured
CCOC(=O)C(=O)c1ccccc1 [ethyl benzoylformate]	11.25	1.705	–
CCCC[C@@H](C)O [(R)-2-hexanol]	–	–	oxidation of secondary alcohol to the respective ketone [2]: can oxidize
OCCOCCO [diethyleneglycol]	0.38	1.027	–
CCC=O [propionaldehyde]	69	10.45	–
CC(C)O [isopropanol]	–	–	specific activity of LL-CR on isopropanol ([3]; regeneration substrate, extends beyond 50% solvent content): 2-4 U/mg protein
O=C(O)C(=O)c1ccccc1 [benzoylformate]	0	0	–
COC(=O)CC(C)=O [Methyl acetoacetate]	36.7	5.561	–
CCCCC(C)=O [2-hexanone]	1.28	3.459	–
CCOCCO [ethoxyethanol]	0.0128	0.03459	–
CC(=O)CO [hydroxyacetone]	0.77	2.081	–
C[C@@H](O)c1ccccc1 [(R)-1-phenyl-1-ethanol]	–	–	oxidation of secondary alcohol to the respective ketone [2]: can oxidize
COC(=O)C(=O)c1ccccc1 [Methyl benzoylformate]	3.86	0.5848	–
CC1CC(=O)CC(C)(C)C1 (centres unmarked) [3,3,5-trimethyl-CHone]	0.24	0.6486	–
CC(=O)c1ccccc1 [acetophenone]	53	8.03	–
CC(C)=O [acetone]	8.36	22.59	–
CCOC(=O)CC(=O)c1ccccc1 [ethyl benzoylacetate]	4.98	13.46	–
CCCCCCCC=O [octylaldehyde]	10.93	1.656	–
CC(=O)C(C)(C)C [pinacolone]	22.5	3.409	–
B1	–	–	T optimum [4]: 40 °C; pH optimum [4]: 6.5; calculated kcat ([4]; pH 7.0 and 30° C.): 24 s⁻¹; vmax ([4]; pH 7.0 and 30° C.): 80 U/mg pure protein; Km [5]: 500 µM; organic solvent content at which enzyme is active ([3]; 200 mM NH4HCO3/50 mM HEPES, pH 7.0, 30° C.): up to 50%; organic solvent content at which stable ([3]; acetonitrile, dioxane, or tetrahydrofuran): below 60%
